Measurements from the NIST ThermoML archive (doi:10.1016/j.tca.2014.10.015).
“And” between values parts separate entries of the source, which are not always exact repeats. Equal values may be shown once.

Details: Liquid; for vapor or sublimation pressure: Transpiration method; for mass density: 293 K, 101.33 kPa, Pycnometric method

CCCCCCCCN=[N+]=[N-] [1-azidooctane]
Details | mass density [kg/m3] | vapor or sublimation pressure
– | 840 | –
276.2 K | – | 0.00625 kPa
279.8 K | – | 0.00904 kPa
282.5 K | – | 0.01172 kPa
285.8 K | – | 0.01548 kPa
289.4 K | – | 0.02119 kPa
292.2 K | – | 0.02751 kPa
293.2 K | – | 0.02911 kPa
296.2 K | – | 0.03707 kPa
300.2 K | – | 0.04808 kPa
302.1 K | – | 0.05805 kPa
303.1 K | – | 0.06504 kPa
307 K | – | 0.08345 kPa
310 K | – | 0.1089 kPa
313.9 K | – | 0.1355 kPa
317.9 K | – | 0.188 kPa
320.9 K | – | 0.2406 kPa
321.8 K | – | 0.2385 kPa
323.9 K | – | 0.2592 kPa and 0.2683 kPa
325.8 K | – | 0.3237 kPa and 0.3236 kPa and 0.3135 kPa

CCCCCCCCCCN=[N+]=[N-] [1-decyl azide]
Details | mass density [kg/m3] | vapor or sublimation pressure [kPa]
– | 870 | –
299.1 K | – | 0.00431
304 K | – | 0.00666
309 K | – | 0.01017
314 K | – | 0.01489
318.9 K | – | 0.02152
324 K | – | 0.03305
329 K | – | 0.04744
333.9 K | – | 0.06769
339 K | – | 0.0914
344.1 K | – | 0.1347
